Experimental data reported in PubChem BioAssay (NCI).
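Test compounds were applied to cells in 96-well plates for 48 hours at 5 doses. GI50 = concentration required for 50% inhibition of growth. TGI: concentration producing complete growth inhibition.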

What was measured:
Assay in all cases: DTP human tumour cell line panel, 48 h
[1] = tested on: 786-0 renal
[2] = tested on: A498 renal
[3] = tested on: A549 NSCLC
[4] = tested on: ACHN renal
[5] = tested on: BT-549 breast
[6] = tested on: CAKI-1 renal
[7] = tested on: CCRF-CEM leukemia
[8] = tested on: COLO 205 colon
[9] = tested on: DU-145 prostate
[10] = tested on: EKVX NSCLC
[11] = tested on: HCC-2998 colon
[12] = tested on: HCT-116 colon
[13] = tested on: HCT-15 colon
[14] = tested on: HL-60(TB) leukemia
[15] = tested on: HOP-62 NSCLC
[16] = tested on: HS 578T breast
[17] = tested on: HT29 colon
[18] = tested on: IGROV1 ovarian
[19] = tested on: K-562 leukemia
[20] = tested on: KM12 colon
[21] = tested on: LOX IMVI melanoma
[22] = tested on: M14 melanoma
[23] = tested on: MALME-3M melanoma
[24] = tested on: MCF7 breast
[25] = tested on: MDA-MB-231 breast
[26] = tested on: MDA-MB-435
[27] = tested on: MOLT-4 leukemia
[28] = tested on: NCI-H226 lung
[29] = tested on: NCI-H23 lung
[30] = tested on: NCI-H460 lung
[31] = tested on: NCI-H522 lung
[32] = tested on: NCI/ADR-RES ovarian
[33] = tested on: OVCAR-3 ovarian
[34] = tested on: OVCAR-4 ovarian
[35] = tested on: OVCAR-5 ovarian
[36] = tested on: OVCAR-8 ovarian
[37] = tested on: PC-3 prostate
[38] = tested on: RXF 393 renal
[39] = tested on: SF-268 CNS
[40] = tested on: SF-295 CNS
[41] = tested on: SF-539 CNS
[42] = tested on: SK-MEL-2 melanoma
[43] = tested on: SK-MEL-28 melanoma
[44] = tested on: SK-MEL-5 melanoma
[45] = tested on: SK-OV-3 ovarian
[46] = tested on: SN12C renal
[47] = tested on: SNB-19 CNS
[48] = tested on: SNB-75 CNS
[49] = tested on: SR leukemia
[50] = tested on: SW-620 colon
[51] = tested on: T-47D breast
[52] = tested on: TK-10 renal
[53] = tested on: U251 CNS
[54] = tested on: UACC-257 melanoma
[55] = tested on: UACC-62 melanoma
[56] = tested on: UO-31 renal
[57] = tested on: HOP-92 NSCLC

ClCCn1cnc2c(SCc3ccccc3Cl)ncnc21
GI50 [1]: 0.671 µM
TGI [1]: 20.4 µM
GI50 [2]: 24.5 µM
TGI [2]: > 93 µM
GI50 [3]: 0.278 µM
TGI [3]: > 39.6 µM
GI50 [4]: 0.51 µM
TGI [4]: > 100 µM
GI50 [5]: 8.79 µM
TGI [5]: 53.6 µM
GI50 [6]: 0.272 µM
TGI [6]: 24.7 µM
GI50 [7]: 2 µM
TGI [7]: 36.5 µM
GI50 [8]: 2.01 µM
TGI [8]: > 100 µM
GI50 [9]: 0.754 µM
TGI [9]: 25 µM
GI50 [10]: 13.8 µM
TGI [10]: > 78 µM
GI50 [11]: 1.75 µM
GI50 [12]: 0.0679 µM
TGI [12]: 21 µM
GI50 [13]: 0.0383 µM
TGI [13]: > 100 µM
GI50 [14]: 0.416 µM
TGI [14]: 8.94 µM
GI50 [15]: 2.56 µM
TGI [15]: > 100 µM
GI50 [16]: 19.4 µM
TGI [16]: 89 µM
GI50 [17]: 0.191 µM
TGI [17]: > 100 µM
GI50 [18]: 0.51 µM
TGI [18]: > 41.6 µM
GI50 [19]: 0.0755 µM
TGI [19]: > 59.1 µM
GI50 [20]: 0.789 µM
TGI [20]: 46.6 µM
GI50 [21]: 0.0756 µM
TGI [21]: 11.9 µM
GI50 [22]: 7.5 µM
TGI [22]: > 76.6 µM
GI50 [23]: 14.2 µM
TGI [23]: 45.4 µM
GI50 [24]: 0.446 µM
TGI [24]: > 100 µM
GI50 [25]: 5.77 µM
TGI [25]: > 100 µM
GI50 [26]: 0.779 µM
TGI [26]: 50.7 µM
GI50 [27]: 0.176 µM
TGI [27]: 9.4 µM
GI50 [28]: 3.52 µM
TGI [28]: 59.9 µM
GI50 [29]: 9.69 µM
TGI [29]: > 73.7 µM
GI50 [30]: 0.0533 µM
TGI [30]: 16.4 µM
GI50 [31]: 2.64 µM
TGI [31]: > 71.1 µM
GI50 [32]: 1.2 µM
TGI [32]: > 52.5 µM
GI50 [33]: 9.31 µM
TGI [33]: 29.8 µM
GI50 [34]: 14.4 µM
TGI [34]: > 100 µM
GI50 [35]: 37.8 µM
TGI [35]: > 100 µM
GI50 [36]: 0.576 µM
TGI [36]: > 90.5 µM
GI50 [37]: 0.717 µM
TGI [37]: 46.6 µM
GI50 [38]: 1.35 µM
TGI [38]: 26.4 µM
GI50 [39]: 4.87 µM
TGI [39]: > 84.7 µM
GI50 [40]: 0.184 µM
TGI [40]: 20.2 µM
GI50 [41]: 0.267 µM
TGI [41]: 68.8 µM
GI50 [42]: 12.7 µM
TGI [42]: 54.4 µM
GI50 [43]: 5.3 µM
TGI [43]: > 83.8 µM
GI50 [44]: 0.272 µM
TGI [44]: 43.3 µM
GI50 [45]: 9.72 µM
TGI [45]: > 100 µM
GI50 [46]: 1.26 µM
TGI [46]: > 100 µM
GI50 [47]: 1.98 µM
TGI [47]: > 100 µM
GI50 [48]: 6.69 µM
TGI [48]: > 63.2 µM
GI50 [49]: 0.0609 µM
TGI [49]: 13.1 µM
GI50 [50]: 0.511 µM
TGI [50]: > 100 µM
GI50 [51]: 13.7 µM
TGI [51]: 79.5 µM
GI50 [52]: 5.44 µM
TGI [52]: > 83.1 µM
GI50 [53]: 0.0925 µM
TGI [53]: > 89.8 µM
GI50 [54]: 2.64 µM
GI50 [55]: 0.529 µM
TGI [55]: > 48.1 µM
GI50 [56]: 0.883 µM
TGI [56]: 41.8 µM

CC1(C)CC[C@]2(C(N)=O)CC[C@]3(C)C(=CC[C@@H]4[C@@]5(C)C/C(=C/c6cccnc6)C(=O)C(C)(C)[C@@H]5CC[C@]43C)[C@@H]2C1
GI50 [1]: 3.85 µM
TGI [1]: 30.5 µM
GI50 [2]: 2.06 µM
TGI [2]: 4.06 µM
GI50 [3]: 3.31 µM
TGI [3]: > 100 µM
GI50 [4]: 3.49 µM
TGI [4]: 13.6 µM
GI50 [5]: 2.61 µM
TGI [5]: 6.83 µM
GI50 [6]: 2.92 µM
TGI [6]: 13 µM
GI50 [7]: 2.54 µM
TGI [7]: 7.73 µM
GI50 [8]: 1.86 µM
TGI [8]: 3.76 µM
GI50 [9]: 3.52 µM
TGI [9]: 16.5 µM
GI50 [10]: 3.44 µM
TGI [10]: > 100 µM
GI50 [11]: 1.71 µM
TGI [11]: 3.34 µM
GI50 [12]: 1.8 µM
TGI [12]: 3.68 µM
GI50 [13]: 2.09 µM
TGI [13]: 4.31 µM
GI50 [14]: 2.04 µM
TGI [14]: 4.55 µM
GI50 [15]: 2.84 µM
TGI [15]: 10.1 µM
GI50 [57]: 2.66 µM
TGI [57]: 8.7 µM
GI50 [16]: 5.93 µM
TGI [16]: > 100 µM
GI50 [17]: 2.1 µM
TGI [17]: 4.56 µM
GI50 [18]: 3.62 µM
TGI [18]: 73 µM
GI50 [19]: 2.4 µM
TGI [19]: 7.11 µM
GI50 [20]: 2.28 µM
TGI [20]: 5.72 µM
GI50 [21]: 1.71 µM
TGI [21]: 3.24 µM
GI50 [22]: 3.38 µM
TGI [22]: 10.9 µM
GI50 [23]: 1.9 µM
TGI [23]: 4.05 µM
GI50 [24]: 2.71 µM
TGI [24]: 13.7 µM
GI50 [25]: 3.8 µM
TGI [25]: 22.3 µM
GI50 [26]: 3.15 µM
TGI [26]: 11.2 µM
GI50 [27]: 2.01 µM
TGI [27]: 6.3 µM
GI50 [28]: 2.09 µM
TGI [28]: 5.78 µM
GI50 [29]: 3.31 µM
TGI [29]: > 100 µM
GI50 [30]: 2.2 µM
TGI [30]: 5.33 µM
GI50 [31]: 2.43 µM
TGI [31]: 8.11 µM
GI50 [32]: 2.71 µM
TGI [32]: 8.96 µM
GI50 [33]: 1.86 µM
TGI [33]: 3.53 µM
GI50 [34]: 7.1 µM
TGI [34]: > 100 µM
GI50 [35]: 1.93 µM
TGI [35]: 4.16 µM
GI50 [36]: 3.69 µM
TGI [36]: > 100 µM
GI50 [37]: 2.56 µM
TGI [37]: 13.4 µM
GI50 [38]: 1.67 µM
TGI [38]: 3.3 µM
GI50 [39]: 3.8 µM
TGI [39]: 18 µM
GI50 [40]: 3.16 µM
TGI [40]: 11.2 µM
GI50 [41]: 1.97 µM
TGI [41]: 3.9 µM
GI50 [42]: 2.22 µM
TGI [42]: 4.99 µM
GI50 [43]: 2.26 µM
TGI [43]: 4.71 µM
GI50 [44]: 1.81 µM
TGI [44]: 3.33 µM
GI50 [45]: 3.95 µM
TGI [45]: > 100 µM
GI50 [46]: 2.31 µM
TGI [46]: 5.24 µM
GI50 [47]: 4.03 µM
TGI [47]: 16.5 µM
GI50 [48]: 9.92 µM
TGI [48]: > 100 µM
GI50 [49]: 2.34 µM
TGI [49]: 7.14 µM
GI50 [50]: 3 µM
TGI [50]: > 100 µM
GI50 [51]: 2.66 µM
TGI [51]: 11.4 µM
GI50 [52]: 4.05 µM
TGI [52]: 30.2 µM
GI50 [53]: 3.19 µM
TGI [53]: 11.2 µM
GI50 [54]: 3.2 µM
TGI [54]: 12.1 µM
GI50 [55]: 2.21 µM
TGI [55]: 5.13 µM
GI50 [56]: 2.28 µM
TGI [56]: 6.83 µM
